Test results from US9096559B2, “4-carboxybenzylamino derivatives as histone deacetylase inhibitors” (Merck Sharp & Dohme Corp., priority 2007, dated 2015).

Experiments:
[1] = system: human cervical cancer (HeLa) and colon carcinoma (HCT116) cells; test: ATP (Vialight) cell proliferation assay, 72 hr; format: cell-based; settings: IP = inflection point, cell line not given, read-out: Prol-72 hr IP (inflection point)
Method: The novel compounds of the present invention were tested for their ability to inhibit proliferation of the human cervical cancer (HeLa) and colon carcinoma (HCT116) cells.
In this assay, also referred to as the Vialight Assay, cellular ATP levels are measured as a means of quantifying cellular proliferation. This assay makes use of a bioluminescent method from Cambrex (ViaLight PLUS, cat. #LT07-121). In the presence of ATP, luciferase converts luciferin to oxyluciferin and light. The amount of light produced (emission at 565 nm) is measured and correlates with a relative amount of proliferation. Human cervical cancer (HeLa) or colon carcinoma (HCT116) cells were incubated with vehicle or increasing concentrations of compound for 48, 72 or 96 hours. Cell proliferation was quantified by adding the cell lysis reagent (provided in the Vialight assay kit) directly to culture wells, followed by addition of the ATP-monitoring reagent (containing luciferase/luciferin). The amount of light produced is then measured (emission at 565 nm). The quantity of light produced, as measured by […], is directly proportional to the number of living cells in culture.

[2] = target: histone deacetylase, subtype 1 (HDAC1) (Homo sapiens (Human), UniProt Q13547); test: HDAC1-Flag in vitro deacetylation assay; format: biochemical; settings: IP = inflection point; read-out: HDAC1 IP (inflection point)
Chain of histone deacetylase, subtype 1 (HDAC1) (Q13547 whole entry): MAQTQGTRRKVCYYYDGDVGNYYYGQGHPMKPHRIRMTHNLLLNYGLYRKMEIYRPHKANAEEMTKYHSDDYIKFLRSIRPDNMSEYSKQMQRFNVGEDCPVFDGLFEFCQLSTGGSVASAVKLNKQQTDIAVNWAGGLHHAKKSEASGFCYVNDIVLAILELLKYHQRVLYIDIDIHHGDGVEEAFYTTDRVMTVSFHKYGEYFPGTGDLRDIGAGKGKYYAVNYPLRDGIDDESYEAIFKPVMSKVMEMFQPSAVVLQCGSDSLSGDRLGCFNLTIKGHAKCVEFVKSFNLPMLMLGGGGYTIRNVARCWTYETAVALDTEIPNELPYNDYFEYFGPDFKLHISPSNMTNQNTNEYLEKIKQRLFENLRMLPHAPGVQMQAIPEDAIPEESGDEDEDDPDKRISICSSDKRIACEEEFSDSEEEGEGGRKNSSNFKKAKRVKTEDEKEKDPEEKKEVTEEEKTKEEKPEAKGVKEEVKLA
Method: Novel compounds were tested for their ability to inhibit histone deacetylase, subtype 1 (HDAC1) using an in vitro deacetylation assay. The enzyme source for this assay was an epitope-tagged human HDAC1 complex immuno-purified from stably expressing mammalian cells. The substrate consisted of a commercial product containing an acetylated lysine side chain (BIOMOL Research Laboratories, Inc., Plymouth Meeting, Pa.). Upon deacetylation of the substrate by incubation with the purified HDAC1 complex, a fluorophore is produced that is directly proportional to the level of deacetylation.

| IC50 [1] [µM] | IC50 [2] [µM] | Compound |
| --- | --- | --- |
| 0.38 |  | Nc1ccc(-c2ccccc2)cc1NC(=O)c1ccc(CNC(=O)OCc2cccnc2)cc1 [Example 1, Pyridin-3-ylmethyl[(4-{[(4-aminobiphenyl-3-yl)amino]carbonyl}phenyl)methyl]carbamate] |
| 0.37 | 0.0058 | Nc1ccc(-c2ccsc2)cc1NC(=O)c1ccc(CNC(=O)OCc2cccnc2)cc1 [Example 4, pyridin-3-ylmethyl {[4-({[2-amino-5-(3-thienyl)phenyl]amino}carbonyl)phenyl]methyl}carbamate] |
| 1 | 0.016 | O=C(NCc1ccc(C(=O)Nc2cc(-c3cccnc3)ccc2O)cc1)OCc1cccnc1 [Example 6, pyridin-3-ylmethyl[(4-{[(2-hydroxy-5-pyridin-3-ylphenyl)amino]carbonyl}phenyl)methyl]carbamate] |
| 0.26 | 0.017 | COC(=O)NCc1ccc(C(=O)Nc2cc(-c3ccccc3)ccc2N)cc1 [Example 9, methyl[(4-{[(4-aminobiphenyl-3-yl)amino]carbonyl}phenyl)methyl]carbamate] |
| 0.23 | 0.016 | CCOC(=O)NCc1ccc(C(=O)Nc2cc(-c3ccccc3)ccc2N)cc1 [Example 10, ethyl[(4-{[(4-aminobiphenyl-3-yl)amino]carbonyl}phenyl)methyl]carbamate] |
| 0.13 |  | CC(C)OC(=O)NCc1ccc(C(=O)Nc2cc(-c3ccccc3)ccc2N)cc1 [Example 11, 1-methylethyl[(4-{[(4-aminobiphenyl-3-yl)amino]carbonyl}phenyl)methyl]carbamate] |
| 0.36 | 0.029 | CCCOC(=O)NCc1ccc(C(=O)Nc2cc(-c3ccccc3)ccc2N)cc1 [Example 12, propyl[(4-{[(4-aminobiphenyl-3-yl)amino]carbonyl}phenyl)methyl]carbamate] |
| 0.39 | 0.045 | CC(C)COC(=O)NCc1ccc(C(=O)Nc2cc(-c3ccccc3)ccc2N)cc1 [Example 13, 2-methylpropyl[(4-{[(4-aminobiphenyl-3-yl)amino]carbonyl}phenyl)methyl]carbamate] |
| 0.82 |  | Nc1ccc(-c2ccccc2)cc1NC(=O)c1ccc(CNC(=O)OCc2ccccc2)cc1 [Example 15, phenylmethyl[(4-{[(4-aminobiphenyl-3-yl)amino]carbonyl}phenyl)methyl]carbamate] |
| 0.13 | 0.012 | CCOC(=O)NCc1ccc(C(=O)Nc2cc(-c3cccs3)ccc2N)cc1 [Example 16, ethyl {[4-({[2-amino-5-(2-thienyl)phenyl]amino}carbonyl)phenyl]methyl}carbamate] |
| 0.096 | 0.006 | COC(=O)NCc1ccc(C(=O)Nc2cc(-c3cccs3)ccc2N)cc1 [Example 17, methyl {[4-({[2-amino-5-(2-thienyl)phenyl]amino}carbonyl)phenyl]methyl}carbamate] |
| 0.12 | 0.019 | CC(C)OC(=O)NCc1ccc(C(=O)Nc2cc(-c3cccs3)ccc2N)cc1 [Example 18, 1-methylethyl {[4-({[2-amino-5-(2-thienyl)phenyl]amino}carbonyl)phenyl]methyl}carbamate] |
| 0.11 | 0.019 | CCCOC(=O)NCc1ccc(C(=O)Nc2cc(-c3cccs3)ccc2N)cc1 [Example 19, propyl {[4-({[2-amino-5-(2-thienyl)phenyl]amino}carbonyl)phenyl]methyl}carbamate] |
| 0.3 | 0.031 | CC(C)COC(=O)NCc1ccc(C(=O)Nc2cc(-c3cccs3)ccc2N)cc1 [Example 20, 2-methylpropyl {[4-({[2-amino-5-(2-thienyl)phenyl]amino}carbonyl)phenyl]methyl}carbamate] |
| 0.32 | 0.053 | Nc1ccc(-c2cccs2)cc1NC(=O)c1ccc(CNC(=O)OCc2ccccc2)cc1 [Example 22, phenylmethyl {[4-({[2-amino-5-(2-thienyl)phenyl]amino}carbonyl)phenyl]methyl}carbamate] |
| 0.32 | 0.018 | CC(=O)NCc1ccc(C(=O)Nc2cc(-c3ccccc3)ccc2N)cc1 [Example 23, 4-[(acetylamino)methyl]-N-(4-aminobiphenyl-3-yl)benzamide] |
| 0.12 | 0.017 | CCC(=O)NCc1ccc(C(=O)Nc2cc(-c3ccccc3)ccc2N)cc1 [Example 24, N-(4-aminobiphenyl-3-yl)-4-[(propanoylamino)methyl]benzamide] |
| 0.22 | 0.017 | CCCC(=O)NCc1ccc(C(=O)Nc2cc(-c3ccccc3)ccc2N)cc1 [Example 25, N-(4-aminobiphenyl-3-yl)-4-[(butanoylamino)methyl]benzamide] |
| 0.19 |  | Nc1ccc(-c2cccs2)cc1NC(=O)c1ccc(CNC(=O)C2CCCCC2)cc1 [Example 45, N-[2-amino-5-(2-thienyl)phenyl]-4-{[(cyclohexylcarbonyl)amino]methyl}benzamide] |
|  | 0.18 | CN1CCC(CNCc2ccc(C(=O)Nc3cc(-c4ccccc4)ccc3O)cc2)C1 (stereo not shown) [Example 110] |
|  | 0.033 | O=C(Nc1cc(-c2ccccc2)ccc1O)c1ccc(CNCCn2cccn2)cc1 [Example 111, N-(4-hydroxy-3-biphenylyl)-4-({[2-(1H-pyrazol-1-yl)ethyl]amino}methyl)benzamide] |
|  | 0.043 | CN(Cc1ccc(C(=O)Nc2cc(-c3ccccc3)ccc2O)cc1)C1CCOC1 (stereo not shown) [Example 112, N-(4-hydroxy-3-biphenylyl)-4-{[methyl(tetrahydro-3-furanyl)amino]methyl}benzamide] |
|  | 0.031 | CN(Cc1ccc(C(=O)Nc2cc(-c3ccccc3)ccc2O)cc1)Cc1cnccn1 [Example 113, N-(4-hydroxy-3-biphenylyl)-4-{[methyl(2-pyrazinylmethyl)amino]methyl}benzamide] |
|  | 0.024 | CN(Cc1ccc(C(=O)Nc2cc(-c3ccccc3)ccc2O)cc1)Cc1cnn(C)c1 [Example 114, N-(4-hydroxy-3-biphenylyl)-4-({methyl[(1-methyl-1H-pyrazol-4-yl)methyl]amino}methyl)benzamide] |
|  | 0.078 | CN1CCC(CN(C)Cc2ccc(C(=O)Nc3cc(-c4ccccc4)ccc3O)cc2)CC1 [Example 115, N-(4-hydroxy-3-biphenylyl)-4-({methyl[(1-methyl-4-piperidinyl)methyl]amino}methyl)benzamide] |
|  | 0.28 | O=C(Nc1cc(-c2ccccc2)ccc1O)c1ccc(CN2CCCC2c2ccccn2)cc1 (stereo not shown) [Example 116, N-(4-hydroxy-3-biphenylyl)-4-{[2-(2-pyridinyl)-1-pyrrolidinyl]methyl}benzamide] |
|  | 4.3 | COc1cccc(CNCc2ccc(C(=O)Nc3cc(-c4ccccc4)ccc3O)cc2)c1 [Example 117, N-(4-hydroxy-3-biphenylyl)-4-{[(3-methoxybenzyl)amino]methyl}benzamide] |

| Compound | IC50 [1] [µM] | IC50 [2] [µM] |
| --- | --- | --- |
| Nc1ccc(-c2ccccc2)cc1NC(=O)c1ccc(CNC(=O)Oc2ccccc2)cc1 [Example 14, phenyl[(4-{[(4-aminobiphenyl-3-yl)amino]carbonyl}phenyl)methyl]carbamate] | 1.4 | 0.32 |
| Nc1ccc(-c2cccs2)cc1NC(=O)c1ccc(CNC(=O)Oc2ccccc2)cc1 [Example 21, phenyl {[4-({[2-amino-5-(2-thienyl)phenyl]amino}carbonyl)phenyl]methyl}carbamate] | 0.64 | 0.077 |
